Data reported in ChEMBL document CHEMBL1201862, “PubChem BioAssay data set” (2004).
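Grown in 96-well plates, cells were treated for 48 hours with each compound at five concentrations. Insufficient inhibition: endpoint recorded as highest concentration tested. Here, GI50 denotes the concentration required for 50% inhibition of growth.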 Calls of active or inactive are those of the source. No stated cut-off is given here; in the data, active = GI50 up to about 1.1 µM and inactive = higher.

What was measured:
Experiment in all cases: DTP human tumour cell line panel, 48 h
[1] = test system: OVCAR-8
[2] = test system: NCI-H460
[3] = test system: SW-620
[4] = test system: PC-3
[5] = test system: NCI-H226
[6] = test system: SNB-19
[7] = test system: MOLT-4
[8] = test system: HCC 2998
[9] = test system: RXF 393
[10] = test system: SK-MEL-5
[11] = test system: SF-268
[12] = test system: LOX IMVI
[13] = test system: HOP-62
[14] = test system: HOP-92
[15] = test system: NCI/ADR-RES
[16] = test system: MCF7
[17] = test system: SK-MEL-2
[18] = test system: UACC-257
[19] = test system: TK-10
[20] = test system: OVCAR-3

| Compound | GI50 [1] | GI50 [2] | GI50 [3] | GI50 [4] | GI50 [5] | GI50 [6] | GI50 [7] | GI50 [8] | GI50 [9] | GI50 [10] | GI50 [11] | GI50 [12] | GI50 [13] | GI50 [14] | GI50 [15] | GI50 [16] | GI50 [17] | GI50 [18] | GI50 [19] | GI50 [20] |
| --- | --- | --- | --- | --- | --- | --- | --- | --- | --- | --- | --- | --- | --- | --- | --- | --- | --- | --- | --- | --- |
| OCC1OC(c2scc3c(=S)[nH]cnc23)C(O)C1O (stereo not given) | 1.24 µM (inactive) | 8.22 µM (inactive) | 6.76 µM (inactive) | 2.53 µM (inactive) | 16 µM (inactive) | 72.3 µM (inactive) | 4.25 µM (inactive) | 7.03 µM (inactive) | 11.9 µM (inactive) | 22.7 µM (inactive) | 21.2 µM (inactive) | 2.86 µM (inactive) | 10.7 µM (inactive) | 0.796 µM (active) | 3.05 µM (inactive) | 2.8 µM (inactive) | 13.4 µM (inactive) | 42.4 µM (inactive) | 5.45 µM (inactive) | 2.19 µM (inactive) |
| CCCCCCCCCCC[N+]1(Cc2ccccc2)CC2CCN(Cc3ccccc3)CC2C1 (stereo not given) | 0.422 µM (active) | 1.29 µM (inactive) | 0.381 µM (active) | 0.234 µM (active) | 0.67 µM (active) | 0.371 µM (active) | 0.199 µM (active) | 0.649 µM (active) | 0.587 µM (active) | 0.173 µM (active) | 0.555 µM (active) | 0.382 µM (active) | 0.818 µM (active) | 0.451 µM (active) | 5.09 µM (inactive) | 0.447 µM (active) | 0.261 µM (active) | 0.288 µM (active) | 1.29 µM (inactive) | 0.371 µM (active) |
| Cc1cn(C2CC(OC(c3ccccc3)(c3ccccc3)c3ccccc3)C(COC(c3ccccc3)(c3ccccc3)c3ccccc3)O2)c(=O)[nH]c1=O (stereo not given) | > 100 µM (inactive) | 57.8 µM (inactive) | 90.4 µM (inactive) | 16 µM (inactive) | 26.1 µM (inactive) | 11.7 µM (inactive) | 29.4 µM (inactive) | > 100 µM (inactive) | 30 µM (inactive) | 43.3 µM (inactive) | 99.8 µM (inactive) | 60 µM (inactive) | > 100 µM (inactive) | 21.1 µM (inactive) | > 100 µM (inactive) | 19 µM (inactive) | 23.7 µM (inactive) | > 100 µM (inactive) | 42.5 µM (inactive) | > 100 µM (inactive) |
| CCC1C(=O)OCc2c1cc1n(c2=O)Cc2cc3ccccc3nc2-1 (stereo not given) | 5.69 µM (inactive) | 0.802 µM (active) | 7.16 µM (inactive) | 15.4 µM (inactive) | 10.8 µM (inactive) | 5.13 µM (inactive) | 0.733 µM (active) | 25.9 µM (inactive) | 23.8 µM (inactive) | 5.79 µM (inactive) | 3.67 µM (inactive) | 3.78 µM (inactive) | 2.08 µM (inactive) | 13.1 µM (inactive) | 8.43 µM (inactive) | 1.59 µM (inactive) | > 100 µM (inactive) | 50.7 µM (inactive) | > 100 µM (inactive) | > 100 µM (inactive) |
| CCOC(=O)/C=C/[C@H](O)[C@@H](O)/C=C/C(=O)OCC | 19.6 µM (inactive) | 19.1 µM (inactive) | 17 µM (inactive) | 23.3 µM (inactive) | > 100 µM (inactive) | 22 µM (inactive) | 14.9 µM (inactive) | 36.1 µM (inactive) | 20.2 µM (inactive) | 22.6 µM (inactive) | 34.2 µM (inactive) | 23.9 µM (inactive) | 21.3 µM (inactive) | 16.8 µM (inactive) | 29.9 µM (inactive) | 19.6 µM (inactive) | 30.8 µM (inactive) | 45.8 µM (inactive) | 55.8 µM (inactive) | 20.1 µM (inactive) |
| CCOC(=O)/C=C(/C(=O)OCC)n1cc(C)c(=O)n(Cc2cnnn2COCCOC(C)=O)c1=O | 14.7 µM (inactive) | 24 µM (inactive) | 3.81 µM (inactive) | 17.2 µM (inactive) | 17.8 µM (inactive) | > 58.5 µM (inactive) | 3.94 µM (inactive) | 20 µM (inactive) | 2.64 µM (inactive) | 20.7 µM (inactive) | 17.4 µM (inactive) | 14.8 µM (inactive) | 49.7 µM (inactive) | 2.43 µM (inactive) | 23.6 µM (inactive) | 10.5 µM (inactive) | 28.4 µM (inactive) | 13.5 µM (inactive) | 5.24 µM (inactive) | 15.3 µM (inactive) |
